Where “and” joins values, the source holds several entries; their conditions need not be identical. Equal values may be shown once.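 Values below derive from 48-hour exposures of cells grown in 96-well plates, with endpoints linearly interpolated between the two concentrations bracketing the appropriate inhibition level. Abbreviation: GI50, concentration required for 50% inhibition of growth. TGI is the concentration that stops growth completely.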

The test system of one assay is HCC-2998 colon. In words: NCI anticancer screen, dose series, 48 h.
With `CCn1c(=O)c2c(=O)c3c4c(oc3oc2c2ccccc21)C(=O)c1ccccc1C4=O`, the GI50 was > 100 µM and the TGI is > 100 µM.

As to `NC(=O)c1cc(S(=O)(=O)Nc2nnc(-c3ccccc3)c(-c3ccccc3)n2)c(SCc2ccccc2)cc1Cl`, the GI50 is > 100 µM and the TGI was > 100 µM.

`Cc1cc(C)c(/C=C2\C(=O)Nc3ccc(NC(=O)CCCCCCC(=O)NO)cc32)[nH]1`: the GI50 is 5.68 µM and the TGI is > 100 µM.

Consider `C1=C\COCc2cc(ccc2OCCN2CCCC2)Nc2nccc(n2)-c2cccc(c2)COC/1`, for which the GI50 was 2.3 µM and the TGI was determined as 5.37 µM.

For the molecule `CC(C)(S)C(N)C(=O)O` (stereo unspecified), the GI50 was 1450 µM and the TGI was 4340 µM.

In the case of `Cc1nc(-[n+]2nc(-c3ccncc3)nn2-c2ccccc2)sc1C`, the TGI was > 100 µM.

For `COc1cc2c3c(n(CCCOC(=O)C(F)(F)F)c(=O)c2cc1OC)-c1cc2c(cc1C3=O)OCO2`, the GI50 was 0.131 µM and the TGI was 0.539 µM.

In the case of `CCOC(=O)/C=C(/C)Sc1cc(O)c2ccccc2c1O`, the GI50 was 16.2 µM and the TGI amounted to 31.1 µM.

On to `N=C(N)c1ccc2nc(-c3cc(CC(=O)N[C@@H](CC(=O)O)C(=O)O)cc(-c4cc(S(N)(=O)=O)ccc4O)c3O)[nH]c2c1`, for which the GI50 is > 100 µM and the TGI was > 100 µM.

With `COc1ccc(O)c(C(=O)c2ccc(C(=O)N[C@H]3CCCNC[C@@H]3NC(=O)c3ccncc3)cc2)c1F`, the GI50 is 9.74 µM and the TGI was > 25 µM.

`COc1ccc(-n2c(C)cc(-c3ccccc3)c2C)cc1`: the GI50 was 3.04 µM and the TGI amounted to 11.4 µM.

In the case of `O[C@H](c1cc(C(F)(F)F)nc2c(C(F)(F)F)cccc12)[C@@H]1CCCCN1`, the GI50 was 1.85 µM and the TGI came to 4.13 µM.

Regarding `COc1cc(C(=O)N2CCN(c3ncccn3)CC2)c(N)cc1OCc1ccccc1`, the GI50 was > 100 µM and the TGI is > 100 µM.

Turning to `O=C1NC(=O)C(c2cccc([N+](=O)[O-])c2)=C1Nc1cc(Cl)c(O)c(Cl)c1`, the GI50 is > 25 µM and the TGI was > 25 µM.

Take `c1ccc2c(c1)c1c(c3ccccc32)CN2CCCC2C1` (stereo unspecified): the TGI worked out at 17.1 µM.

With `N#CC1=C(N)Oc2cc(O)ccc2C1c1cccc2ccccc12` (stereo unspecified), the GI50 was 3 µM and the TGI was 13.9 µM.

A further assay has as its system SF-539 CNS. In words: NCI anticancer screen, dose series, 48 h.
Turning to `CCn1c(=O)c2c(=O)c3c4c(oc3oc2c2ccccc21)C(=O)c1ccccc1C4=O`, the GI50 was 3.32 µM and the TGI was > 100 µM.

Take `NC(=O)c1cc(S(=O)(=O)Nc2nnc(-c3ccccc3)c(-c3ccccc3)n2)c(SCc2ccccc2)cc1Cl`: the GI50 was > 44.3 µM and the TGI was > 63.9 µM.

Regarding `Cc1cc(C)c(/C=C2\C(=O)Nc3ccc(NC(=O)CCCCCCC(=O)NO)cc32)[nH]1`, the GI50 is 0.521 µM and the TGI is > 100 µM.

Take `C1=C\COCc2cc(ccc2OCCN2CCCC2)Nc2nccc(n2)-c2cccc(c2)COC/1`: the GI50 was 3.11 µM and the TGI was found to be 5.71 µM.

As to `CC(C)(S)C(N)C(=O)O` (stereo unspecified), the GI50 was 1420 µM; the TGI is 4370 µM and > 100 µM.

`Cc1nc(-[n+]2nc(-c3ccncc3)nn2-c2ccccc2)sc1C` displayed a TGI of 69.2 µM.

For the molecule `COc1cc2c3c(n(CCCOC(=O)C(F)(F)F)c(=O)c2cc1OC)-c1cc2c(cc1C3=O)OCO2`, the GI50 was < 0.01 µM and the TGI stood at 0.0699 µM.

`CCOC(=O)/C=C(/C)Sc1cc(O)c2ccccc2c1O`: the GI50 is 4.84 µM and the TGI was 11.7 µM.

`N=C(N)c1ccc2nc(-c3cc(CC(=O)N[C@@H](CC(=O)O)C(=O)O)cc(-c4cc(S(N)(=O)=O)ccc4O)c3O)[nH]c2c1`: the GI50 is > 100 µM and the TGI was > 100 µM.

Turning to `COc1ccc(O)c(C(=O)c2ccc(C(=O)N[C@H]3CCCNC[C@@H]3NC(=O)c3ccncc3)cc2)c1F`, the GI50 was 0.624 µM and the TGI amounted to 7.68 µM.

Consider `COc1ccc(-n2c(C)cc(-c3ccccc3)c2C)cc1`, for which the GI50 was 2.96 µM and the TGI turned out to be 17.4 µM.

Regarding `O[C@H](c1cc(C(F)(F)F)nc2c(C(F)(F)F)cccc12)[C@@H]1CCCCN1`, the GI50 is 6.43 µM and the TGI was found to be 15 µM.

Consider `O=C1NC(=O)C(c2cccc([N+](=O)[O-])c2)=C1Nc1cc(Cl)c(O)c(Cl)c1`, for which the GI50 was > 25 µM and the TGI is > 25 µM.

Take `c1ccc2c(c1)c1c(c3ccccc32)CN2CCCC2C1` (stereo unspecified): the TGI was found to be 10.7 µM.

As for `N#CC1=C(N)Oc2cc(O)ccc2C1c1cccc2ccccc12` (stereo unspecified), the GI50 is 16.5 µM and the TGI amounted to 36.5 µM.

The subject of a further assay is RXF 393 renal. In words: NCI anticancer screen, dose series, 48 h.
For the molecule `CCn1c(=O)c2c(=O)c3c4c(oc3oc2c2ccccc21)C(=O)c1ccccc1C4=O`, the GI50 was > 31.7 µM and the TGI is > 100 µM.

For `NC(=O)c1cc(S(=O)(=O)Nc2nnc(-c3ccccc3)c(-c3ccccc3)n2)c(SCc2ccccc2)cc1Cl`, the GI50 was 75.3 µM and the TGI is > 100 µM.

For the molecule `Cc1cc(C)c(/C=C2\C(=O)Nc3ccc(NC(=O)CCCCCCC(=O)NO)cc32)[nH]1`, the GI50 is 1.17 µM and the TGI is > 75.2 µM.

In the case of `C1=C\COCc2cc(ccc2OCCN2CCCC2)Nc2nccc(n2)-c2cccc(c2)COC/1`, the GI50 is 1.05 µM and the TGI came to 2.9 µM.

For the molecule `CC(C)(S)C(N)C(=O)O` (stereo unspecified), the GI50 was > 5000 µM and the TGI is > 5000 µM.

In turn, `Cc1nc(-[n+]2nc(-c3ccncc3)nn2-c2ccccc2)sc1C` gave a TGI of 45.9 µM.

With `COc1cc2c3c(n(CCCOC(=O)C(F)(F)F)c(=O)c2cc1OC)-c1cc2c(cc1C3=O)OCO2`, the GI50 is 0.593 µM and the TGI is > 67.8 µM.

Source of the values: PubChem BioAssay (NCI).
